Test results taken from paper PMC8308585, “Design and Synthesis of Novel Thiazolo[5,4-d]pyrimidine Derivatives with High Affinity for Both the Adenosine A1 and A2A Receptors, and Efficacy in Animal Models of Depression” (Pharmaceuticals, 2021).
Where two headings read alike, the source gives them in different places.

How the values were obtained:
human A2A AR = target: T1, human A2A AR (Homo sapiens, UniProt P29274); assay: Radioligand binding, displacement of [3H]-NECA at hA2A AR in CHO cells;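 also: competition binding on membranes from CHO cells stably transfected with human A2A receptor, binding curves fitted by nonlinear regression in GraphPad Prism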
T1 construct: expressed in transfected cells; host or cells: CHO cells
T1 sequence (P29274 whole entry): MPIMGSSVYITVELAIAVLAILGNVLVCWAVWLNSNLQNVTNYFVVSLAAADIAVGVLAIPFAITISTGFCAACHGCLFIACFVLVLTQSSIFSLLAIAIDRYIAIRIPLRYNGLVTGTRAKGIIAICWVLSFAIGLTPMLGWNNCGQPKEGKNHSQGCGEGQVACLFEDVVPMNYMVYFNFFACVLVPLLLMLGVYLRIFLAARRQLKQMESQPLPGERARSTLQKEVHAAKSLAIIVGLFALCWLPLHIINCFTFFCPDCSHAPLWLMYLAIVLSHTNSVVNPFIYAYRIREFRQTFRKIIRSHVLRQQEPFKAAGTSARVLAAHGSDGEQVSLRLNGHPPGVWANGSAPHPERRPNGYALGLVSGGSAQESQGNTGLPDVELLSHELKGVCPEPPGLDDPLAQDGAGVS
Procedure: (§2) CHO cells, stably expressing hARs, were grown adherently and maintained in Dulbecco’s modified Eagle’s medium (DMEM) with nutrient mixture F12 supplemented with 10% fetal bovine serum (FBS), penicillin (100 µg/mL), streptomycin (100 µg/mL), sodium pyruvate (1 mM), and geneticin (0.1 mg/mL).
(§3) Briefly, cells were homogenized in cold lysis buffer (5 mM Tris HCl, 2 mM EDTA, pH 7.4), centrifuged at low speed spin for 10 min, and subsequently, the supernatant was spun at 37,000 rpm. Membrane pellet was resuspended in the specific buffer and stored at −80 °C.

mice = assay: Forced swimming test; format: in vivo, mouse; conditions: for Immobility Time: mouse FST, single dose 26 min before test, last 4 min of 6 min, mean ± SEM of 10 mice, vehicle 193.7 ± 8.9
Procedure: To execute the tests, mice were divided into groups, each of which consisted of 10 animals. The tests were performed after a single p.o. administration of compound 18 at different dosages (10 mg Kg^−1 and 30 mg Kg^−1). Amitriptyline (15 mg Kg^−1) was used as the reference drug. Compounds were acutely administrated 26 min before the beginning of the experiment. In the FST (Table 4), the duration of immobility was recorded during the last 4 min of the 6 min test.
Male CD-1 albino mice (22–25 g; Envigo, Varese, Italy) were housed in CeSAL (Centro Stabulazione Animali da Laboratorio, University of Florence, Florence, Italy) and used at least one week after their arrival. Animals were housed in 26 cm × 41 cm cages (12 mice each) and fed with a standard laboratory diet and tap water ad libitum. They were kept at 23 ± 1 °C with a 12 h light/dark cycle, light at 7 a.m. Compound 18 was administered per o.s. whereas amitriptyline was by a s.c. route following the most widely used approach reported in the literature.
Mice were individually placed into glass cylinders (height: 25 cm, diameter: 10 cm) containing 12 cm of water maintained at 22–23 °C for 6 min. Immobility was considered the animal floated in the water, in an upright position, and made only small movements to keep its head above water. The immobility time was recorded during the last 4-min of the 6-min test. A decrease in the duration of immobility is indicative of an antidepressant-like effect.
Behavioral tests were performed by visual observation by researchers blinded to the treatments. Results were expressed as means ± SEM, variance was analyzed by ANOVA. A Bonferroni’s significant difference procedure was used as post-hoc comparison. p values of less than 0.05 and 0.01 were considered significant. Data were analyzed using the “Origin 8.1” software.

hA2A AR = target: T2, hA2A AR (Homo sapiens, UniProt P29274); assay: Inhibition of NECA-induced increase of cAMP in CHO cells expressing hA2A AR (GloSensor cAMP assay); format: cell-based; conditions: inhibition of NECA-stimulated adenylyl cyclase activity, mean ± standard error
T2 construct: expressed in transfected cells; host or cells: CHO cells
T2 sequence (P29274 whole entry): as above
Procedure: Compound 18 was also tested to evaluate its antagonist behavior at the hA1 AR by assessing its ability to counteract NECA-induced decrease of cAMP accumulation.
The intrinsic activity of understudy compounds was evaluated through the GloSensor cAMP assay, as described previously. Briefly, cells stably expressing the hA1, hA2A, and hA2B ARs and the biosensor were incubated for 2 h at rt in equilibration medium containing 3% v/v GloSensor cAMP reagent stock solution, 10% FBS, and 87% CO2 independent medium. Afterward, cells were dispensed in the wells of a 384-well plate and the reference agonist NECA or the compounds, at different concentrations, were tested. The antagonist profile of compounds was evaluated by assessing their ability to counteract NECA-induced increase (A2A and A2B ARs) or decrease (A1 AR) of cAMP accumulation. Responses were expressed as percentage of the maximal relative luminescence units (RLU).
(§1) Binding data and concentration–response curves were fitted by a nonlinear regression with the Prism program (GraphPAD Prism 7 Software, San Diego, CA, USA). Each concentration was tested 3–5 times in duplicate and the Ki or IC50 (the concentration of antagonists that produces 50% inhibition of the agonist effect) values are given as the mean ± standard error (S.E.).

hA2B AR = target: T3, hA2B AR (Homo sapiens, UniProt P29275); assay: Inhibition of NECA-stimulated adenylyl cyclase activity (cAMP) in CHO cells expressing hA2B AR; format: cell-based; conditions: mean ± SEM
T3 construct: expressed in transfected cells; host or cells: CHO cells
T3 sequence (P29275 1-332): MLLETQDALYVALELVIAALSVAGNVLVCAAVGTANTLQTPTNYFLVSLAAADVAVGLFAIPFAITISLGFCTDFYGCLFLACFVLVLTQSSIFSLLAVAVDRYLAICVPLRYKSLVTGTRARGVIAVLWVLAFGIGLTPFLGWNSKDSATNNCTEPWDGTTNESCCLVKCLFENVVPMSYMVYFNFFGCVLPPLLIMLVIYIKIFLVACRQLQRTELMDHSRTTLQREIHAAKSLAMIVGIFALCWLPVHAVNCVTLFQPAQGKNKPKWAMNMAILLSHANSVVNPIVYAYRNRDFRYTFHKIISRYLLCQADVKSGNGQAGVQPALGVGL
Procedure: Compounds 1–19 were evaluated for their binding affinity at hA1, hA2A, and hA3 ARs, stably transfected in Chinese hamster ovary (CHO) cells. […].
The binding affinity of the novel compounds was evaluated using radioligand competition experiments in CHO cells stably transfected with hA1 AR, hA2A AR, and hA3 AR subtypes. […]; The potency at hA2B AR, expressed on CHO cells, was determined by inhibition of NECA-stimulated adenylyl cyclase activity. […]
as §1

human A1 AR = target: T4, human A1 AR (Homo sapiens, UniProt P30542); assay: Radioligand binding, displacement of [3H]-CCPA at hA1 AR in CHO cells; conditions: displacement of specific [3H]-CCPA binding, n = 3–6, mean ± SEM
T4 construct: expressed in transfected cells; host or cells: CHO cells
T4 sequence (P30542 1-326): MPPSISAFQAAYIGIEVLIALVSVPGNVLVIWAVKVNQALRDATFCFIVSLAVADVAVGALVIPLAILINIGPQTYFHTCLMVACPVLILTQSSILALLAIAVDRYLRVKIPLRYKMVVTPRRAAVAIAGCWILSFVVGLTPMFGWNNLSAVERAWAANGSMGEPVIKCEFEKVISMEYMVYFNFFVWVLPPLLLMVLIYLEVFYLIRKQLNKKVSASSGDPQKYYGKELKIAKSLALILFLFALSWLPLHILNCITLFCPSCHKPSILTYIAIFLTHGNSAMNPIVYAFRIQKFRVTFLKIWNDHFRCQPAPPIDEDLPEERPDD
Procedure: as §2, §3

hA3 AR = target: T5, hA3 AR (Homo sapiens, UniProt P0DMS8); assay: Radioligand binding, displacement of [3H]-HEMADO at hA3 AR in CHO cells; conditions: displacement of specific [3H]-HEMADO binding, mean ± SEM
T5 construct: expressed in transfected cells; host or cells: CHO cells
T5 sequence (P0DMS8 1-318): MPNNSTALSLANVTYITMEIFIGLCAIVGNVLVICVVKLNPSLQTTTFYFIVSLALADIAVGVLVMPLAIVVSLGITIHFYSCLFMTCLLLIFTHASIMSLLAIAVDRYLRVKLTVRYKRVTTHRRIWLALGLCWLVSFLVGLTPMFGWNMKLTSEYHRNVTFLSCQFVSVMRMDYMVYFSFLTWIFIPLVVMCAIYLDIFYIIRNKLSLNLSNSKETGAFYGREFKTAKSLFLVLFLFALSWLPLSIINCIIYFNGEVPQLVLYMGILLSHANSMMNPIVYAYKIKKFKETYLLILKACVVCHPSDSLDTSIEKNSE
Procedure: as §2, §3

Nc1nc(-c2ccco2)nc2sc(Cc3ccccc3F)nc12 [compound 18, 2-(2-Fluorobenzyl)-5-(furan-2-yl)thiazolo[5,4-d]pyrimidin-7-amine]
Ki (human A2A AR; displacement of specific [3H]-NECA binding, CHO cells, mean ± SEM, read-out: hA2A Ki): 0.06 ± 0.02 nM | Ki (human A2A AR; hA2A AR, as listed in Table 3, read-out: pKi A2A (converted)): 0.0646 nM | Immobility Time (mice; 10 mg kg^−1 p.o.): 184.7 ± 5.6 s | Immobility Time (mice; 30 mg kg^−1 p.o.): 143.5 ± 9.1 s | Antidepressant-like effect in FST (in words) (mice; mouse, 10 and 30 mg Kg^−1 p.o., vs amitriptyline 15 mg Kg^−1): dose-dependently induced an antidepressant-like effect comparable to that induced by the clinically used drug amitriptyline | IC50 (hA2A AR): 14 ± 3.4 nM | IC50 (hA2B AR): 384 ± 55 nM | Ki (human A1 AR): 1.9 ± 0.08 nM | Ki (hA3 AR): 93.1 ± 2.8 nM
